Source: ChEMBL document CHEMBL6120982, “Cell-penetrating anti-sense peptide nucleic acids targeting sulfatase 2 inhibit adipogenesis in human mesenchymal stem cells” (Bioorg Med Chem, 2024)
One block for each compound: values may come before it. Active and inactive are the calls of the source. The calls are words filed in the database; no cut-off is given here.

Tests used:
DNA [1] = assay: Binding affinity to 10-mer DNA (unknown origin) assessed as melting temperature at 4 uM by UV-Vis spectrophotometric analysis; assay type: nucleic-acid assay
Mesenchymal stem cells [2] = assay: Anti-adipogenic activity in insulin/dexamthasone/pioglitazone/IBMX differentiated human BMMSC cells assessed as downregulation of adiponectin protein secretion by ELISA; assay type: functional, cell-based
Mesenchymal stem cells [3] = assay: Cytotoxicity against human BMMSC cells assessed as effect on cell viability upto 1 uM incubated for 24 hrs by CCK8 assay; assay type: toxicity, cell-based
DNA [4] = assay: Binding affinity to N-terminal of 10-mer c-DNA (unknown origin) assessed as melting temperature at 4 uM by UV-Vis spectrophotometric analysis; assay type: nucleic-acid assay
Mesenchymal stem cells [5] = assay: Effect on osteogenesis in ascorbic acid/dexamethasone/beta-glycerol phosphate differentiated human BMMSC cells; assay type: functional, cell-based
Mesenchymal stem cells [6] = assay: Anti-adipogenic activity in insulin/dexamthasone/pioglitazone/IBMX differentiated human BMMSC cells assessed as downregulation of adiponectin protein secretion at 1 uM by ELISA; assay type: functional, cell-based
Mesenchymal stem cells [7] = assay: Inhibition of SULF2 mRNA expression in human BMMSC cells at 0.1 uM by RT-qPCR analysis; assay type: functional, cell-based
Mesenchymal stem cells [8] = assay: Inhibition of SULF2 mRNA expression in human BMMSC cells by RT-qPCR analysis; assay type: functional, cell-based; conditions: dose 0.01-1 µM
DNA [9] = assay: Binding affinity to C-terminal of 10-mer c-DNA (unknown origin) assessed as melting temperature at 4 uM by UV-Vis spectrophotometric analysis; assay type: nucleic-acid assay

Tm (DNA [1]): 75.9 °C
SMILES: NCCCCCNc1nc(N)c2ncn(CC(=O)N(CCNC(=O)CN(CCNC(=O)CN(CCNC(=O)CN(CCNC(=O)CN(CCN)C(=O)Cn3cnc4c(=O)[nH]c(N)nc43)C(=O)Cn3ccc(N)nc3=O)C(=O)Cn3cnc4c(N)ncnc43)C(=O)Cn3cnc4c(=O)[nH]c(N)nc43)CC(=O)NCCN(CC(=O)NCCN(CC(=O)NCCN(CC(=O)NCCN(CC(=O)NCCN(CC(N)=O)C(=O)Cn3cnc4c(=O)[nH]c(N)nc43)C(=O)Cn3cnc4c(N)ncnc43)C(=O)Cn3cnc4c(=O)[nH]c(N)nc43)C(=O)Cn3ccc(N)nc3=O)C(=O)Cn3cnc4c(=O)[nH]c(N)nc43)c2n1

IC50 (Mesenchymal stem cells [2]): > 1000 nM
Tm (DNA [4]): > 90 °C
SMILES: Cc1cn(CC(=O)N(CCNC(=O)CN(CCNC(=O)CN(CCNC(=O)CN(CCNC(=O)CN(CCNC(=O)CN(CCNC(=O)CN(CCNC(=O)CN(CCNC(=O)CN(CCNC(=O)CN(CCNC(=O)CN(CCNC(=O)CN(CCNC(=O)CN(CCNC(=O)CN(CCNC(=O)CN(CCNC(=O)CN(CCNC(=O)CN(CCNC(=O)CN(CCNC(=O)CN(CCNC(=O)CN(CCNC(=O)OCCC2c3ccccc3-c3ccccc32)C(=O)Cn2cnc3c(=O)[nH]c(N)nc32)C(=O)Cn2cnc3c(=O)[nH]c(NCCCCCCN)nc32)C(=O)Cn2cnc3c(=O)[nH]c(N)nc32)C(=O)Cn2cnc3c(=O)[nH]c(N)nc32)C(=O)Cn2cc3cc(COCCN)[nH]c3nc2=O)C(=O)Cn2ccc(N)nc2=O)C(=O)Cn2ccc(N)nc2=O)C(=O)Cn2cnc3c(N)nc(NCCCCCN)nc32)C(=O)Cn2cc(C)c(=O)[nH]c2=O)C(=O)Cn2ccc(N)nc2=O)C(=O)Cn2cc(C)c(=O)[nH]c2=O)C(=O)Cn2cc(C)c(=O)[nH]c2=O)C(=O)Cn2cc3cc(COCCN)[nH]c3nc2=O)C(=O)Cn2cc(C)c(=O)[nH]c2=O)C(=O)Cn2cc(C)c(=O)[nH]c2=O)C(=O)Cn2cc(C)c(=O)[nH]c2=O)C(=O)Cn2cc(C)c(=O)[nH]c2=O)C(=O)Cn2cc(C)c(=O)[nH]c2=O)C(=O)Cn2cc(C)c(=O)[nH]c2=O)CC(N)=O)c(=O)[nH]c1=O
Activity (Mesenchymal stem cells [3]): Non-toxic
Activity (Mesenchymal stem cells [5]): inactive
Activity (Mesenchymal stem cells [6]): Active
inhibition (Mesenchymal stem cells [7]): Mild_effect
inhibition (Mesenchymal stem cells [8]): Dose-dependent-effect

Tm (DNA [1]): 77.2 °C
SMILES: NCCOCc1cc2cn(CC(=O)N(CCNC(=O)CN(CCNC(=O)CN(CCNC(=O)CN(CCNC(=O)CN(CCN)C(=O)Cn3ccc(N)nc3=O)C(=O)Cn3cnc4c(N)ncnc43)C(=O)Cn3cnc4c(=O)[nH]c(N)nc43)C(=O)Cn3cnc4c(N)ncnc43)CC(=O)NCCN(CC(=O)NCCN(CC(=O)NCCN(CC(=O)NCCN(CC(=O)NCCN(CC(N)=O)C(=O)Cn3ccc(N)nc3=O)C(=O)Cn3cnc4c(=O)[nH]c(N)nc43)C(=O)Cn3cnc4c(N)ncnc43)C(=O)Cn3cnc4c(=O)[nH]c(N)nc43)C(=O)Cn3cnc4c(N)ncnc43)c(=O)nc2[nH]1

Tm (DNA [1]): 69.2 °C
SMILES: NCCCCCNc1nc(N)c2ncn(CC(=O)N(CCNC(=O)CN(CCNC(=O)CN(CCNC(=O)CN(CCNC(=O)CN(CCNC(=O)CN(CCN)C(=O)Cn3cnc4c(N)ncnc43)C(=O)Cn3cnc4c(=O)[nH]c(N)nc43)C(=O)Cn3ccc(N)nc3=O)C(=O)Cn3cnc4c(N)ncnc43)C(=O)Cn3ccc(N)nc3=O)CC(=O)NCCN(CC(=O)NCCN(CC(=O)NCCN(CC(=O)NCCN(CC(N)=O)C(=O)Cn3cnc4c(N)ncnc43)C(=O)Cn3ccc(N)nc3=O)C(=O)Cn3cnc4c(N)ncnc43)C(=O)Cn3cnc4c(=O)[nH]c(N)nc43)c2n1

Tm (DNA [1]): 66.2 °C
SMILES: Cc1cn(CC(=O)N(CCN)CC(=O)NCCN(CC(=O)NCCN(CC(=O)NCCN(CC(=O)NCCN(CC(=O)NCCN(CC(=O)NCCN(CC(=O)NCCN(CC(=O)NCCN(CC(=O)NCCN(CC(N)=O)C(=O)Cn2cnc3c(N)ncnc32)C(=O)Cn2ccc(N)nc2=O)C(=O)Cn2cnc3c(=O)[nH]c(N)nc32)C(=O)Cn2cnc3c(N)ncnc32)C(=O)Cn2ccc(N)nc2=O)C(=O)Cn2cnc3c(N)ncnc32)C(=O)Cn2cnc3c(=O)[nH]c(N)nc32)C(=O)Cn2cnc3c(N)ncnc32)C(=O)Cn2ccc(N)nc2=O)c(=O)[nH]c1=O

Tm (DNA [1]): 76.4 °C
SMILES: Cc1cn(CC(=O)N(CCN)CC(=O)NCCN(CC(=O)NCCN(CC(=O)NCCN(CC(=O)NCCN(CC(=O)NCCN(CC(=O)NCCN(CC(=O)NCCN(CC(=O)NCCN(CC(=O)NCCN(CC(N)=O)C(=O)Cn2cnc3c(N)ncnc32)C(=O)Cn2cc3cc(COCCN)[nH]c3nc2=O)C(=O)Cn2cnc3c(=O)[nH]c(N)nc32)C(=O)Cn2cnc3c(N)ncnc32)C(=O)Cn2cc3cc(COCCN)[nH]c3nc2=O)C(=O)Cn2cnc3c(N)ncnc32)C(=O)Cn2cnc3c(=O)[nH]c(N)nc32)C(=O)Cn2cnc3c(N)ncnc32)C(=O)Cn2ccc(N)nc2=O)c(=O)[nH]c1=O

Tm (DNA [1]): 65.2 °C
SMILES: NCCN(CC(=O)NCCN(CC(=O)NCCN(CC(=O)NCCN(CC(=O)NCCN(CC(=O)NCCN(CC(=O)NCCN(CC(=O)NCCN(CC(=O)NCCN(CC(=O)NCCN(CC(N)=O)C(=O)Cn1cnc2c(N)ncnc21)C(=O)Cn1ccc(N)nc1=O)C(=O)Cn1cnc2c(N)ncnc21)C(=O)Cn1cnc2c(=O)[nH]c(N)nc21)C(=O)Cn1cnc2c(N)ncnc21)C(=O)Cn1ccc(N)nc1=O)C(=O)Cn1cnc2c(N)ncnc21)C(=O)Cn1ccc(N)nc1=O)C(=O)Cn1cnc2c(=O)[nH]c(N)nc21)C(=O)Cn1cnc2c(N)ncnc21

Tm (DNA [1]): 74.8 °C
SMILES: NCCCCCCNc1nc2c(ncn2CC(=O)N(CCNC(=O)CN(CCNC(=O)CN(CCNC(=O)CN(CCNC(=O)CN(CCNC(=O)CN(CCN)C(=O)Cn2cnc3c(=O)[nH]c(N)nc32)C(=O)Cn2ccc(N)nc2=O)C(=O)Cn2cnc3c(N)ncnc32)C(=O)Cn2cnc3c(=O)[nH]c(NCCCCCCN)nc32)C(=O)Cn2cnc3c(N)nc(NCCCCCN)nc32)CC(=O)NCCN(CC(=O)NCCN(CC(=O)NCCN(CC(=O)NCCN(CC(N)=O)C(=O)Cn2cnc3c(=O)[nH]c(N)nc32)C(=O)Cn2cnc3c(N)ncnc32)C(=O)Cn2cnc3c(=O)[nH]c(NCCCCCCN)nc32)C(=O)Cn2ccc(N)nc2=O)c(=O)[nH]1

Tm (DNA [4]): 77 °C
Tm (DNA [9]): 63.5 °C
SMILES: Cc1cn(CC(=O)N(CCNC(=O)CN(CCNC(=O)CN(CCNC(=O)CN(CCNC(=O)CN(CCNC(=O)CN(CCNC(=O)CN(CCNC(=O)CN(CCNC(=O)CN(CCNC(=O)CN(CCNC(=O)CN(CCNC(=O)CN(CCNC(=O)CN(CCNC(=O)CN(CCNC(=O)CN(CCNC(=O)CN(CCNC(=O)CN(CCNC(=O)CN(CCNC(=O)CN(CCNC(=O)OCCC2c3ccccc3-c3ccccc32)C(=O)Cn2ccc(N)nc2=O)C(=O)Cn2cc3cc(COCCN)[nH]c3nc2=O)C(=O)Cn2ccc(N)nc2=O)C(=O)Cn2cc(C)c(=O)[nH]c2=O)C(=O)Cn2cnc3c(=O)[nH]c(NCCCCCCN)nc32)C(=O)Cn2ccc(N)nc2=O)C(=O)Cn2cc(C)c(=O)[nH]c2=O)C(=O)Cn2ccc(N)nc2=O)C(=O)Cn2cnc3c(=O)[nH]c(NCCCCCN)nc32)C(=O)Cn2ccc(N)nc2=O)C(=O)Cn2ccc(N)nc2=O)C(=O)Cn2cc(C)c(=O)[nH]c2=O)C(=O)Cn2cnc3c(=O)[nH]c(NCCCCCCN)nc32)C(=O)Cn2cc(C)c(=O)[nH]c2=O)C(=O)Cn2ccc(N)nc2=O)C(=O)Cn2ccc(N)nc2=O)C(=O)Cn2cnc3c(=O)[nH]c(NCCCCCCN)nc32)C(=O)Cn2cnc3c(=O)[nH]c(N)nc32)CC(=O)NCCN(N)C(=O)Cn2cnc3c(N)ncnc32)c(=O)[nH]c1=O
Activity (Mesenchymal stem cells [3]): Non-toxic
Activity (Mesenchymal stem cells [5]): inactive
inhibition (Mesenchymal stem cells [7]): inactive

Tm (DNA [1]): 71 °C
SMILES: NCCN(CC(=O)NCCN(CC(=O)NCCN(CC(=O)NCCN(CC(=O)NCCN(CC(=O)NCCN(CC(=O)NCCN(CC(=O)NCCN(CC(=O)NCCN(CC(=O)NCCN(CC(N)=O)C(=O)Cn1ccc(N)nc1=O)C(=O)Cn1cnc2c(=O)[nH]c(N)nc21)C(=O)Cn1cnc2c(N)ncnc21)C(=O)Cn1cnc2c(=O)[nH]c(N)nc21)C(=O)Cn1cnc2c(N)ncnc21)C(=O)Cn1ccc(N)nc1=O)C(=O)Cn1cnc2c(N)ncnc21)C(=O)Cn1cnc2c(=O)[nH]c(N)nc21)C(=O)Cn1cnc2c(N)ncnc21)C(=O)Cn1ccc(N)nc1=O

Tm (DNA [1]): 76.9 °C
SMILES: NCCCCCCNc1nc2c(ncn2CC(=O)N(CCN)CC(=O)NCCN(CC(=O)NCCN(CC(=O)NCCN(CC(=O)NCCN(CC(=O)NCCN(CC(=O)NCCN(CC(=O)NCCN(CC(=O)NCCN(CC(=O)NCCN(CC(N)=O)C(=O)Cn2cnc3c(=O)[nH]c(N)nc32)C(=O)Cn2cnc3c(N)ncnc32)C(=O)Cn2cnc3c(=O)[nH]c(N)nc32)C(=O)Cn2ccc(N)nc2=O)C(=O)Cn2cnc3c(=O)[nH]c(N)nc32)C(=O)Cn2cnc3c(N)nc(NCCCCCN)nc32)C(=O)Cn2cnc3c(=O)[nH]c(N)nc32)C(=O)Cn2cnc3c(N)ncnc32)C(=O)Cn2ccc(N)nc2=O)c(=O)[nH]1

Tm (DNA [4]): 66.4 °C
Tm (DNA [9]): 51.1 °C
SMILES: Cc1cn(CC(=O)N(CCNC(=O)CN(CCNC(=O)CN(CCNC(=O)CN(CCNC(=O)CN(CCNC(=O)CN(CCNC(=O)CN(CCNC(=O)CN(CCNC(=O)CN(CCNC(=O)CN(CCNC(=O)CN(CCNC(=O)CN(CCNC(=O)CN(CCNC(=O)CN(CCNC(=O)CN(CCNC(=O)CN(CCNC(=O)CN(CCNC(=O)CN(CCNC(=O)OCCC2c3ccccc3-c3ccccc32)C(=O)Cn2cc(C)c(=O)[nH]c2=O)C(=O)Cn2cnc3c(=O)[nH]c(N)nc32)C(=O)Cn2ccc(N)nc2=O)C(=O)Cn2cnc3c(N)nc(NCCCCCN)nc32)C(=O)Cn2cc(C)c(=O)[nH]c2=O)C(=O)Cn2cnc3c(=O)[nH]c(N)nc32)C(=O)Cn2cnc3c(=O)[nH]c(N)nc32)C(=O)Cn2cnc3c(N)nc(NCCCCCN)nc32)C(=O)Cn2cnc3c(N)ncnc32)C(=O)Cn2ccc(N)nc2=O)C(=O)Cn2cc3cc(COCCN)[nH]c3nc2=O)C(=O)Cn2cc(C)c(=O)[nH]c2=O)C(=O)Cn2cnc3c(=O)[nH]c(N)cc32)C(=O)Cn2ccc(N)nc2=O)C(=O)Cn2cnc3c(N)nc(NCCCCCN)nc32)C(=O)Cn2cnc3c(N)ncnc32)C(=O)Cn2cnc3c(=O)[nH]c(NCCCCCCN)nc32)CC(=O)NCCN(CC(=O)NCCN(CC(N)=O)C(=O)Cn2cnc3c(N)ncnc32)C(=O)Cn2ccc(N)nc2=O)c(=O)[nH]c1=O
Activity (Mesenchymal stem cells [3]): Non-toxic
Activity (Mesenchymal stem cells [5]): inactive
inhibition (Mesenchymal stem cells [7]): inactive
